# From patent publication US20190110478A1, “ANTIBACTERIAL COMPOSITION, ANTIBACTERIAL FILM, ANTIBACTERIAL FILM-ATTACHED SUBSTRATE, METHOD FOR MANUFACTURING ANTIBACTERIAL FILM, AND METHOD FOR MANUFACTURING ANTIBACTERIAL FILM-ATTACHED SUBSTRATE” (FUJIFILM Corporation, priority 2016, published 2019)
# Assay: Viscosity characteristics of water-insoluble nitrogen-containing compound (rotary viscometer)
# Format: physicochemical
# Conditions: 1% by mass solid content in propylene glycol monomethyl ether, 25° C.
# Method: In a case in which a water-insoluble nitrogen-containing compound is dissolved in propylene glycol monomethyl ether to obtain a solution having a solid content of 1% by mass, the viscosity of the solution at 25° C. as measured using a rotary viscometer is 10 mPa·s or higher.
structure (smiles),measurement,value
CC(C)(C)c1ccc(O)c(-n2nc3ccccc3n2)c1 [TINUVIN PS],Viscosity of solution,2.1 mPa·s
